Test [1] has as its system HEK293. The test can be described thus: cells. To be noted: Homo sapiens.
Test [2] relates to HEK293. The test can be described thus: cells. As to conditions: Homo sapiens. The source holds these as a separate data set.
Test [3] concerns the target DNA dC->dU-editing enzyme APOBEC-3G (Homo sapiens, UniProt Q9HC16). Nature of the test: Dose Response confirmation of small molecule APOBEC3G DNA Deaminase Inhibitors via a fluorescence-based single-stranded DNA deaminase assay. [Related pubchem assays (depositor defined):AID493012, AID493028]. It is filed as functional.
Test [4] is described as follows: luciferase reporter signal suppression in cells – H4 neuroglioma cells, luminescence, dose response (AID 1990). It is filed as functional, cell-based. (In general: A reporter such as luciferase makes a cellular process visible.)
Test [5] can be described thus: Luminescence Cell-Based Dose Response HTS to Identify Inhibitors of 5'UTR Stem-Loop Driven Prion Protein mRNA Translation in H4 Neuroglioblastoma Cells. [Related pubchem assays: 1827 (Project Summary), 1813 (Primary HTS)]. Format: functional.
Test [6] is described as follows: alpha-synuclein stem-loop luciferase translation blockers – H4 neuroglioma cells, luminescence, confirmation (AID 1988). Format: functional, cell-based.
A short description of test [7]: Trypanosoma cruzi growth suppression in host cells – NIH3T3 host cells, beta-gal luminescence, confirmation (AID 2044).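 Also: intracellular parasites grown in NIH/3T3 mouse fibroblasts as host cells; luminescent beta-galactosidase reporter signal from transgenic T. cruzi replicating inside host cells; inhibitors lower the luminescence signal.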 It is filed as functional, cell-based.
The nature of test [8]: NIH3T3 cell viability loss – ATP luminescence, mouse fibroblasts, counter-screen, dose response (AID 2010).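 Also: cells exposed to compound for about 90 hours before reading.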 Format: functional, cell-based. In general terms: A counterscreen serves to expose hits that act by an unwanted route or on another target.
The nature of test [9]: HEK-293T viability loss after treatment – luminescence, T-cell screen hits, cytotoxicity control for TCR NF-kB inhibitor project, dose response (AID 489026).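 Also: cells exposed to compound about 14 hours before the viability readout.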 It is filed as functional, cell-based.
In another test the test system is INS1. The test can be described thus: INS-1E survival protection against cytokine death – cell-based, luminescence, retest, dose response (AID 449756).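 Also: cell death triggered by IL-1 beta plus TNF-alpha plus IFN-gamma mixture; protective hits raise ATP signal compared with cytokine alone wells.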 Format: functional. To be noted: Rattus norvegicus.
Test [10] addresses T1, COUP transcription factor 2 (Homo sapiens, UniProt P24468).
T1 sequence (P24468 whole entry): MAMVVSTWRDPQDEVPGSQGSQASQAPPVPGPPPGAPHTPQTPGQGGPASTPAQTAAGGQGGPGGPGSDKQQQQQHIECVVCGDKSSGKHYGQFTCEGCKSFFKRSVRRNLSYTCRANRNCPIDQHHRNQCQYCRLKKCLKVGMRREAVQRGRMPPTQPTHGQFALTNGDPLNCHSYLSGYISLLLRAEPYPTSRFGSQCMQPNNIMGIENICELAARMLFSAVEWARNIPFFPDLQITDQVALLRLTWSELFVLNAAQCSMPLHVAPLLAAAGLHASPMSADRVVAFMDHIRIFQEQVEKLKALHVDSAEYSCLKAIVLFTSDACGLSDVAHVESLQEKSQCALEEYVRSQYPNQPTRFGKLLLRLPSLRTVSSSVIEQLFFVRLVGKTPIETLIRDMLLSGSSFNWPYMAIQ
Nature of the test: Luminescence-based cell-based high throughput dose response assay to identify inhibitors of COUP-TFII (NR2F2). It is filed as functional.

Another test addresses T2, Coagulation factor XII (Homo sapiens, UniProt P00748).
T2 sequence (P00748 whole entry): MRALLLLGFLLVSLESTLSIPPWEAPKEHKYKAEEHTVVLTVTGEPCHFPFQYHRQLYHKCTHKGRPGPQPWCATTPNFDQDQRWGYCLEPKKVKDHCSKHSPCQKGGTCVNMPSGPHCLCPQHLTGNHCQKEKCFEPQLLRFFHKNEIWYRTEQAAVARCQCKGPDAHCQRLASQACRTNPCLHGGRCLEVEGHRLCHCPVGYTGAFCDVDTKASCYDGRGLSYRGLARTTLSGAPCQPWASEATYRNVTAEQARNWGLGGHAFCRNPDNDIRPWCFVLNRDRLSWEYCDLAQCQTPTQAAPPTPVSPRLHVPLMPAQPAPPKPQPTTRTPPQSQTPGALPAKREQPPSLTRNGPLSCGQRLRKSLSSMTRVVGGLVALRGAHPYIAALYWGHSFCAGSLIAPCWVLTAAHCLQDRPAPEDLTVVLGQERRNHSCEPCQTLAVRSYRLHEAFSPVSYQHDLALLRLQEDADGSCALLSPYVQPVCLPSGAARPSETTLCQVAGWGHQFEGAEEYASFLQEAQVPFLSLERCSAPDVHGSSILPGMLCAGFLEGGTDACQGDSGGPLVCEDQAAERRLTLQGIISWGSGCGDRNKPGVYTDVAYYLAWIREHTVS
Format: functional.

The target of test [11] is Peroxisome proliferator-activated receptor gamma/Nuclear receptor coactivator 2 (Homo sapiens, UniProt P37231). Format: functional.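 Also: agonist potency for raising coactivator recruitment to the receptor.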
The target of test [12] is Peroxisome proliferator-activated receptor gamma/Nuclear receptor coactivator 1 (Homo sapiens, UniProt P37231). It is filed as functional.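 Also: agonist potency as compounds enhance coactivator SRC-1 recruitment to PPARgamma.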
Test [13] deals with Peroxisome proliferator-activated receptor gamma/Nuclear receptor coactivator 3 (Homo sapiens, UniProt P37231). Format: functional.
The next test deals with Estrogen receptor beta (Homo sapiens, UniProt Q92731). The test can be described thus: blockers of SRC-3 recruitment to ERβ – biochemical, ELISA, streptavidin-HRP readout, orthogonal assay, confirmation (AID 1060). For orientation: In an ELISA, binding on a coated surface is turned into a signal by an enzyme label.
A short description of test [14]: cells. It is filed as functional, cell-based.
The nature of test [15]: cells. Format: functional, cell-based. The source holds these as a separate data set.
The next test deals with Paired box protein Pax-8 (Homo sapiens, UniProt Q06710). Nature of the test: PAX8 transcriptional activity inhibition in RMG-I – RMG-I cells, luciferase, cherry-pick, dose response (AID 687027).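 Also: luciferase reporter driven by Pax8 target thyroperoxidase promoter measured by SteadyGlo luminescence.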 It is filed as functional, cell-based.
Test [16] in a line: OVCAR-3 cell viability loss – plate reader, dry powder samples, PAX8 inhibitor project, dose response (AID 743044). It is filed as functional, cell-based.
A short description of test [17]: OVCAR8 cell viability loss – plate reader, dry powder samples, PAX8 project, dose response (AID 743197). It is filed as functional, cell-based. As to conditions: OVCAR-8.
Test [18] addresses Voltage-dependent T-type calcium channel subunit alpha-1H (Homo sapiens, UniProt O95180). Format: functional.
Test [19] has as its target Voltage-gated N-type calcium channel alpha-1B subunit/Amyloid beta A4 precursor protein-binding family A member 1 (Homo sapiens, UniProt Q00975+Q02410). The test can be described thus: disruptors of Mint-PDZ/N-type channel peptide interaction – biochemical, HTRF, set 2, SAR follow-up (AID 434980). Format: functional.
The next test concerns the target T3, Caspase-6 (Homo sapiens, UniProt P55212).
T3 sequence (P55212 whole entry): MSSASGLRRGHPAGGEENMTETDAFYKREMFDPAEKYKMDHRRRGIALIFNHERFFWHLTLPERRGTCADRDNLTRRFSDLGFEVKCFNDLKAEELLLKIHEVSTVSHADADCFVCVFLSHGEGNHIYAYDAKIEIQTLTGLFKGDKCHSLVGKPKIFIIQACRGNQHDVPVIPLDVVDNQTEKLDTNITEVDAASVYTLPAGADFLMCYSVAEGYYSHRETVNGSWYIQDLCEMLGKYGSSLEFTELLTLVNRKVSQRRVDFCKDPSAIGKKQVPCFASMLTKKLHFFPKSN
Nature of the test: inhibition of CASP6 peptide cleavage – biochemical, VEID-R110 fluorescence, cherry-pick, dose response (AID 720632).

18 compounds from ChEMBL document CHEMBL1201862, “PubChem BioAssay data set” (2004) can be followed below.

The source made the active and inactive calls. Some results are limits rather than exact numbers.

Sequence of Peroxisome proliferator-activated receptor gamma/Nuclear receptor coactivator 1 (P37231 whole entry): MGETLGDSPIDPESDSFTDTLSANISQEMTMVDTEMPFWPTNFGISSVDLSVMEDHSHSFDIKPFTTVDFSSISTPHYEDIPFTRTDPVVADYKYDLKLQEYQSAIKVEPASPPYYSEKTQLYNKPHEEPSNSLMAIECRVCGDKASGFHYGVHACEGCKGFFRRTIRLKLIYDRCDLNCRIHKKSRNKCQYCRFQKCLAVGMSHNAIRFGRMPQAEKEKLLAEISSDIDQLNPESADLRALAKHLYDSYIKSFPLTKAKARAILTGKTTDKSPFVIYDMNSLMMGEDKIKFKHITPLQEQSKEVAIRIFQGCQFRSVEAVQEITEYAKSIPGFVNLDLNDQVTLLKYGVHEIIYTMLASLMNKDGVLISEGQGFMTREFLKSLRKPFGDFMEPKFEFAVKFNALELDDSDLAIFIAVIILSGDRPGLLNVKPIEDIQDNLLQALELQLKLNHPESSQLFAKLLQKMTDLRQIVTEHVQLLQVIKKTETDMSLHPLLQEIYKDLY
Sequence of Peroxisome proliferator-activated receptor gamma/Nuclear receptor coactivator 1 (Q15788 whole entry, further chain): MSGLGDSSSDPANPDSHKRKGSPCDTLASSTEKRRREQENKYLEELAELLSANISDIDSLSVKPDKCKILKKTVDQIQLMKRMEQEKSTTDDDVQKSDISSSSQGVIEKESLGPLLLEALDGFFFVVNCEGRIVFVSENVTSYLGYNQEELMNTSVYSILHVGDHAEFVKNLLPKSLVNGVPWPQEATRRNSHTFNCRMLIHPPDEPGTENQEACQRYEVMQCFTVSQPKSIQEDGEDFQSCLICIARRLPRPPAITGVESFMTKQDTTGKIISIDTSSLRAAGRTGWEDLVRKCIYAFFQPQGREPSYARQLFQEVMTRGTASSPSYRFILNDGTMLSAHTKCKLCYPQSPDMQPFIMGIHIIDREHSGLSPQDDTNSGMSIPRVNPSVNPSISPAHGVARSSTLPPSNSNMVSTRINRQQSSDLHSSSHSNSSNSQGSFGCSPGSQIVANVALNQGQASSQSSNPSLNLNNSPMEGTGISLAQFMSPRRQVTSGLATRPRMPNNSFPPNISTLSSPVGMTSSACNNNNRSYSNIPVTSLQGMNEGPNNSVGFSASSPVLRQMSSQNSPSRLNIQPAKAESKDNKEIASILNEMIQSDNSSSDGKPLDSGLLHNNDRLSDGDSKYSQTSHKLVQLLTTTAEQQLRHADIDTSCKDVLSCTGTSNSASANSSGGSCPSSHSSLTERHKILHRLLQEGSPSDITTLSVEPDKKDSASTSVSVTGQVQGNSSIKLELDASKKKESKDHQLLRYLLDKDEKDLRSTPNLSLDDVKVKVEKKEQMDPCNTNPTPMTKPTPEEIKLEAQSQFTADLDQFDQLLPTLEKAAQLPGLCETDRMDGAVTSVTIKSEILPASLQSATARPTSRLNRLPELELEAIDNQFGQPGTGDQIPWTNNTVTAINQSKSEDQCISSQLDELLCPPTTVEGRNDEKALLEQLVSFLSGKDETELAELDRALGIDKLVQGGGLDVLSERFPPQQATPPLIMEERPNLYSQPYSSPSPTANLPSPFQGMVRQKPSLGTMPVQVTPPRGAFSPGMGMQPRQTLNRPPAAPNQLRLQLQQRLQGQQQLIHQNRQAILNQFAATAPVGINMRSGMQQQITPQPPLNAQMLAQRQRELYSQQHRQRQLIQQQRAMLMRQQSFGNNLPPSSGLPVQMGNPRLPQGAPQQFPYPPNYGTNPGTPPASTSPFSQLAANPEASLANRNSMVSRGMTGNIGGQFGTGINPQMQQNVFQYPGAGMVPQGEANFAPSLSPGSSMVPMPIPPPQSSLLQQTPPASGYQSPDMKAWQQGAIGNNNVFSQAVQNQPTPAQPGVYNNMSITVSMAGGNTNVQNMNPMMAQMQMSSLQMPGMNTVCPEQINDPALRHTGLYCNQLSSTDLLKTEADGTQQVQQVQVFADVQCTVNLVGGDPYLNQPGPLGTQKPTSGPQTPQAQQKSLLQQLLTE
Sequence of Peroxisome proliferator-activated receptor gamma/Nuclear receptor coactivator 3 (P37231 whole entry): as the sequence (P37231 whole entry) above
Sequence of Peroxisome proliferator-activated receptor gamma/Nuclear receptor coactivator 3 (Q9Y6Q9 whole entry, further chain): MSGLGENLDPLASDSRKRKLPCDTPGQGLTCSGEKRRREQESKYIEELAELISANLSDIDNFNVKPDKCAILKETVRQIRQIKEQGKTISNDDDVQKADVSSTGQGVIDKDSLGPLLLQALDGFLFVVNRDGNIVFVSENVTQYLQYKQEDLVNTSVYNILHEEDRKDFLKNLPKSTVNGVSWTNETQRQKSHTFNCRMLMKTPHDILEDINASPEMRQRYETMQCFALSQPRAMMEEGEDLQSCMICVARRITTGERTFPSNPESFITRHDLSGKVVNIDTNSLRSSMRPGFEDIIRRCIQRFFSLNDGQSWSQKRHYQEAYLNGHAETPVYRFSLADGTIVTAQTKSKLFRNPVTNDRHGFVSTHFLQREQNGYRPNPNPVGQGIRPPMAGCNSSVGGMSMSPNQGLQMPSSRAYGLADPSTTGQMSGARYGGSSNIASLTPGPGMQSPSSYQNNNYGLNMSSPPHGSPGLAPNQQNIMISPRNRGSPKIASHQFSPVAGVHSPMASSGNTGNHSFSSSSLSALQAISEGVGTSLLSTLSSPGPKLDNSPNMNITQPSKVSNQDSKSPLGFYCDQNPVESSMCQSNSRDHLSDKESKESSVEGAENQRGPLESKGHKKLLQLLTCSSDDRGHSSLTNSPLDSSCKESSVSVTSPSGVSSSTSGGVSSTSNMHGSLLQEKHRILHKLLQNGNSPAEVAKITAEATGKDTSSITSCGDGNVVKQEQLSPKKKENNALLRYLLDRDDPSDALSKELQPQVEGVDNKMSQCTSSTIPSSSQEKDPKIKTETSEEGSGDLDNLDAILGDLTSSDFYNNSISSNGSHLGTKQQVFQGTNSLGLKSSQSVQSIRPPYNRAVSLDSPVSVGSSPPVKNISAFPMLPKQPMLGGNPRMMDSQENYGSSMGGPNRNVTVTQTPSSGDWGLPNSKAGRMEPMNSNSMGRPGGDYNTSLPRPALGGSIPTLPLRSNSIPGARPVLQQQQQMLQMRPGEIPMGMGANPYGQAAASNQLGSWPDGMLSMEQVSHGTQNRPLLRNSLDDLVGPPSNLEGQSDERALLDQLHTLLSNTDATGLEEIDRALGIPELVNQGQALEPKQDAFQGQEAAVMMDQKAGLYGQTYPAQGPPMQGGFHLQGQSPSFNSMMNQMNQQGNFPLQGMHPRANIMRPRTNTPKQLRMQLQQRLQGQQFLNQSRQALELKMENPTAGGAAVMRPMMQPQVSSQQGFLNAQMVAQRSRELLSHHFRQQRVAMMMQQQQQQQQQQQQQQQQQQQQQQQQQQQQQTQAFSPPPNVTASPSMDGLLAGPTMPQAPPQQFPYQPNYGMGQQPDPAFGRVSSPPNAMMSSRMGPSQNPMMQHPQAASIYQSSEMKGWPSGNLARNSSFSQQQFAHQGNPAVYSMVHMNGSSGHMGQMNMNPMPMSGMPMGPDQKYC
Sequence of Paired box protein Pax-8 (Q06710 whole entry): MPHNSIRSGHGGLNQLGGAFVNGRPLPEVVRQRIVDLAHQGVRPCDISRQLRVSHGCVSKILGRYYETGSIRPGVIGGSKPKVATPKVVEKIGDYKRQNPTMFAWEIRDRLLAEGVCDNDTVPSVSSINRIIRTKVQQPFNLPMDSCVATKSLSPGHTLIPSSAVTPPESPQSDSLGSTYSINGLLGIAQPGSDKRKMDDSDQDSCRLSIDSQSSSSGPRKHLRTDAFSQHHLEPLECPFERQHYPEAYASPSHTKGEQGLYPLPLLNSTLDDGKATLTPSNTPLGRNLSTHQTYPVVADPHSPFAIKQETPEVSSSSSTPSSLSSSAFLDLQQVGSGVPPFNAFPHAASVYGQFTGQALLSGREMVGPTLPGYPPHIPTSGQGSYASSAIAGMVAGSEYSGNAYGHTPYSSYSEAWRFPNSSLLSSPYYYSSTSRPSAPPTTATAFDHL
Sequence of DNA dC->dU-editing enzyme APOBEC-3G (Q9HC16 whole entry): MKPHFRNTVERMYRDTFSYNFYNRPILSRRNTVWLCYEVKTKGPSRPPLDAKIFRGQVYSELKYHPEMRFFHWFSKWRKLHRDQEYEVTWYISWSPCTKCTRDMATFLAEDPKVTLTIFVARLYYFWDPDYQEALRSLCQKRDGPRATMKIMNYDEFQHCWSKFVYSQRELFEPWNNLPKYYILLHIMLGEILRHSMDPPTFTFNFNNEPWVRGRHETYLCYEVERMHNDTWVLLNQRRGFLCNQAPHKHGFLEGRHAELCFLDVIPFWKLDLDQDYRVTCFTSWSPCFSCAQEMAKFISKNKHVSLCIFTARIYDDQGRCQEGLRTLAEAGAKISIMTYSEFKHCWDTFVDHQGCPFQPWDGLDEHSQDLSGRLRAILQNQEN

As for `COc1ccc(C2C=C(C34CC5CC(CC(C5)C3)C4)N=C(S)N2)cc1OC` (centres undefined), the EC50 in the test with HEK293 [1] and in the test with HEK293 [2] was > 59.6 µM (inactive) throughout.
On to `COc1cc(/C=N/n2c(S)nnc2-c2ccccc2)cc(OC)c1O`, for which the IC50 in test [3] is > 100 µM (inactive).
With `N=c1ccn(CC(=O)c2ccc(-c3ccccc3)cc2)cc1`, the EC50 is 9.17 µM (active) in test [4]; 12.3 µM (active) in test [5]; 7.33 µM (active) in test [6]; 2.01 µM (active) in test [7]; > 60 µM (not active) in test [8]. Moreover, the IC50 was > 80 µM (inactive) in test [9] and 9.15 µM (active) in test [10]. In addition, the AC50 in the test with INS1 is 1.46 µM (active).
Take `CCC(C)NC(=O)CSc1ncnc2sccc12` (centres undefined): on Coagulation factor XII, the IC50 was > 50 µM (inactive).
`N#Cc1cc2c(nc1SCc1ccccc1)CCC2`: the EC50 in [11] is listed as 45.2 µM (not active); in test [12], 41 µM (not active); in test [13], 56.6 µM (not active). At Estrogen receptor beta, the IC50 is 0.0254 µM (not active).
Take `COc1cc(C2CC(=O)N3CN(Cc4ccccc4)CSC3=C2C#N)ccc1OCc1ccccc1` (centres undefined): the concentration giving a half-maximal response (EC50) is > 79.4 µM (not active) in [11]; > 79.4 µM (not active) in test [12]; > 79.4 µM (not active) in test [13]; > 350 µM (not active) in “cells [14]”; 40.3 µM (active) in “cells [15]”.
For the compound `CCOC(=O)C1=NN(c2cccc(Cl)c2)C2=NC(C)=C(C(=O)OC)C(c3cccs3)N12` (centres undefined), the EC50 in [11], in test [12] and in [13] was > 79.4 µM (not active) each time.
With `Cc1noc(C)c1S(=O)(=O)Nc1ccc2c(c1)C(=O)N([C@H](C)CO)C[C@H](C)[C@@H](CN(C)C(=O)Nc1ccc(C(F)(F)F)cc1)OCCCC[C@H](C)O2`, the half-maximal activity concentration (AC50) on Paired box protein Pax-8 was 9.4 µM (active); in [16], < 0.26 µM (active); in test [17], > 70 µM (inactive).
`CCO/C(O)=C1\C(C)=NC(=S)N(C(C)=O)C1c1ccc(OC)c(OC)c1` (centres undefined): the IC50 on Coagulation factor XII is > 50 µM (inactive).
On to `O=C(CSc1nnc(CNC(=O)c2cccs2)o1)Nc1cccc(C(F)(F)F)c1`, for which the EC50 in test [18] is 4.46 µM (active).
Turning to `CC(C)(C)n1ncc2c(=O)n(CC(=O)Nc3ccc(Cl)cc3)cnc21`, the EC50 in test [18] is 4.08 µM (active).
In the case of `CC(C)(C)c1ccc(CNC(=O)c2cc(-c3ccco3)nc3ccccc23)cc1`, the 50% inhibitory concentration (IC50) in test [19] was 39.5 µM (active).
In the case of `O=C(O)c1cc([N+](=O)[O-])cc2c1C=Cc1ccccc1O2`, the half-maximal activity concentration (AC50) at Caspase-6 was 37.5 µM (active).
Consider `C[C@@H]1CCCCO[C@@H](CN(C)C(=O)Nc2ccc(C(F)(F)F)cc2)[C@H](C)CN([C@H](C)CO)C(=O)c2cc(NS(=O)(=O)c3ccc(Cl)cc3)ccc2O1`, for which the concentration at half-maximal activity (AC50) at Paired box protein Pax-8 was 3.25 µM (active); in test [16], 27.8 µM (active); in [17], 32 µM (active).
As for `CCC1=NN(C(=O)Cc2ccc([N+](=O)[O-])cc2)C(O)(C(F)(F)F)C1` (centres undefined), the IC50 at Coagulation factor XII is > 50 µM (inactive).
The same measure, in the same setting: in the case of `CCOc1ccc(N(CC(=O)Nc2cc(C)ccc2C)S(=O)(=O)c2c(C)nc(O)nc2O)cc1` it was > 50 µM (inactive).
Regarding `Nc1ccccc1SC(C[N+](=O)[O-])c1ccccc1` (centres undefined), in test [3], the 50% inhibitory concentration (IC50) was 28.2 µM (active).
Turning to `O=C(N[C@@H]1C[C@H]1c1ccccc1)c1cc(-c2ccco2)nc2ccccc12`, the IC50 in [19] is 46.4 µM (active).

By EC50 is commonly meant the concentration needed to bring the measured effect to its halfway point. The term IC50 denotes the concentration at which inhibition is half-maximal. As a reminder, the AC50 is the concentration giving half of the maximal activity seen.
